From patent US11213579B2, “Vaccines with enhanced immunogenicity, low allergenicity and reactogenicity” (priority 2018, dated 2022)

Legend:
P. aeruginosa 6616 = assay: Photodynamic inactivation of Pseudomonas aeruginosa, re-seeding on MHA to control inactivation; type: cell-based; details: initial dose 10 lg CFU/ml, 5 min, 500 μV/ml
[1] = tested on: Newcastle disease virus (strain 2M); type: cell-based
[2] = photosensitizer 1 nM/L, 320 nm for flavins, 560 nm for phenothiazines and porphyrins
[3] = photosensitizer 5 nM/L, 320 nm for flavins, 560 nm for phenothiazines and porphyrins
[4] = photosensitizer 10 nM/L, 320 nm for flavins, 560 nm for phenothiazines and porphyrins
[5] = photosensitizer 20 nM/L, 320 nm for flavins, 560 nm for phenothiazines and porphyrins
[6] = photosensitizer 40 nM/L, 320 nm for flavins, 560 nm for phenothiazines and porphyrins
[7] = photosensitizer 80 nM/L, 320 nm for flavins, 560 nm for phenothiazines and porphyrins
[8] = photosensitizer 160 nM/L, 320 nm for flavins, 560 nm for phenothiazines and porphyrins
[9] = photosensitizer 320 nM/L, 320 nm for flavins, 560 nm for phenothiazines and porphyrins
[10] = photosensitizer 640 nM/L, 320 nm for flavins, 560 nm for phenothiazines and porphyrins

Molecule	lg CFU/ml after treatment (P. aeruginosa 6616; [2]) [lg CFU/ml]	lg CFU/ml after treatment (P. aeruginosa 6616; [3]) [lg CFU/ml]	lg CFU/ml after treatment (P. aeruginosa 6616; [4]) [lg CFU/ml]	lg CFU/ml after treatment (P. aeruginosa 6616; [5]) [lg CFU/ml]	lg CFU/ml after treatment (P. aeruginosa 6616; [6]) [lg CFU/ml]	lg CFU/ml after treatment (P. aeruginosa 6616; [7]) [lg CFU/ml]	lg CFU/ml after treatment (P. aeruginosa 6616; [8]) [lg CFU/ml]	lg CFU/ml after treatment (P. aeruginosa 6616; [9]) [lg CFU/ml]	lg CFU/ml after treatment (P. aeruginosa 6616; [10]) [lg CFU/ml]	also measured
Cc1cc2nc3c(=O)[nH]c(=O)nc-3n(C[C@H](O)[C@H](O)[C@H](O)COP(=O)(O)OP(=O)(O)OC[C@H]3O[C@@H](n4cnc5c(N)ncnc54)[C@H](O)[C@@H]3O)c2cc1C [Riboflavin dinucleotide]	3	0	0	0	0	0	0	0	0	–
Cc1cc2nc3c(=O)[nH]c(=O)nc-3n(C[C@H](O)[C@H](O)[C@H](O)COP(=O)(O)O)c2cc1C [Riboflavin mononucleotide]	4	1	0	0	0	0	0	0	0	–
Cc1cc2nc3c(=O)[nH]c(=O)nc-3n(C[C@H](O)[C@H](O)[C@H](O)CO)c2cc1C [Riboflavin]	6	2	1	0	0	0	0	0	0	lg CFU/ml after treatment (P. aeruginosa 6616; wavelength 180 nm, photoinactivator 40 μM/L): 0 lg CFU/ml; lg CFU/ml after treatment (P. aeruginosa 6616; wavelength 220 nm, photoinactivator 40 μM/L): 2 lg CFU/ml; lg CFU/ml after treatment (P. aeruginosa 6616; wavelength 260 nm, photoinactivator 40 μM/L): 1 lg CFU/ml; lg CFU/ml after treatment (P. aeruginosa 6616; wavelength 320 nm, photoinactivator 40 μM/L): 0 lg CFU/ml; lg CFU/ml after treatment (P. aeruginosa 6616; wavelength 360 nm, photoinactivator 40 μM/L): 0 lg CFU/ml; lg CFU/ml after treatment (P. aeruginosa 6616; wavelength 400 nm, photoinactivator 40 μM/L): 0 lg CFU/ml; lg CFU/ml after treatment (P. aeruginosa 6616; wavelength 440 nm, photoinactivator 40 μM/L): 0 lg CFU/ml; lg CFU/ml after treatment (P. aeruginosa 6616; wavelength 480 nm, photoinactivator 40 μM/L): 0 lg CFU/ml; lg CFU/ml after treatment (P. aeruginosa 6616; wavelength 520 nm, photoinactivator 40 μM/L): 9 lg CFU/ml; lg CFU/ml after treatment (P. aeruginosa 6616; wavelength 560 nm, photoinactivator 40 μM/L): 8 lg CFU/ml; lg CFU/ml after treatment (P. aeruginosa 6616; wavelength 600 nm, photoinactivator 40 μM/L): 9 lg CFU/ml; lg CFU/ml after treatment (P. aeruginosa 6616; wavelength 640 nm, photoinactivator 40 μM/L): 9 lg CFU/ml; lg CFU/ml after treatment (P. aeruginosa 6616; wavelength 680 nm, photoinactivator 40 μM/L): 7 lg CFU/ml; lg CFU/ml after treatment (P. aeruginosa 6616; wavelength 720 nm, photoinactivator 40 μM/L): 6 lg CFU/ml; spectral region of highest inactivation efficiency [1]: 180-390 nm
Cc1cc2nc3ccc(N(C)C)cc3[s+]c2cc1N.[Cl-] [Toluidine Blue]	6	2	1	1	0	0	0	0	0	lg CFU/ml after treatment (P. aeruginosa 6616; photosensitizer 1280 nM/L, 320 nm for flavins, 560 nm for phenothiazines and porphyrins): 2 lg CFU/ml
Cyanocobalamin	6	5	4	4	4	2	3	2	0	–
